# Test results published in US20230322792A1, “CDK9 INHIBITORS” (Biolexis Therapeutics, Inc., priority 2022, published 2023).
# Target: CDK9/CycT1 (Homo sapiens (Human), UniProt P50750)
# Experiment: ADP-Glo Kinase Assay
# Assay type: biochemical
# Protocol: ADP-Glo assay kit was purchased from Promega and the CDK9/CycT1 protein and PDKtide substrate were purchased from SignalChem. […] The reaction is started by pre-incubating 4 μL of protein (20 nM), 2 μL of substrate (100 μM), and 2 μL of serial diluted drug in 1× assay buffer (50 mM HEPES, 3 mM MgCl2, 3 mM MnCl2, and 1 mM DTT) for 30 minutes. After pre-incubating, 4 μL of ATP (1 μM) is added to each well and incubated for an additional 90 minutes. The ADP-Glo Reagent (10 μL) and Kinase Detection Reagent (20 μL) are added to each well and incubated as recommended by Promega. The reaction is quantified by measuring luminescence and the IC50 is calculated using GraphPad Prism software.
# CDK9/CycT1, sequence (P50750 whole entry): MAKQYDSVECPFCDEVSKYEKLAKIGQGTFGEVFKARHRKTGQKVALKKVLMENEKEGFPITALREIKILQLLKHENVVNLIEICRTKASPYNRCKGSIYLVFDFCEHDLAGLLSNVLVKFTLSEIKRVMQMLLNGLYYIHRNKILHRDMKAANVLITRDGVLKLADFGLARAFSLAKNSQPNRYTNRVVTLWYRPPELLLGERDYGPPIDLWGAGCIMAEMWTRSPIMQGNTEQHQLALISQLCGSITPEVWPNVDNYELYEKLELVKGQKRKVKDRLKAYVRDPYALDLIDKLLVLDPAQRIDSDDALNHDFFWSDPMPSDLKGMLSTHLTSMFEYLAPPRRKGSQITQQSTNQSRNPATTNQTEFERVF
# CDK9/CycT1, sequence (O60563 whole entry partner): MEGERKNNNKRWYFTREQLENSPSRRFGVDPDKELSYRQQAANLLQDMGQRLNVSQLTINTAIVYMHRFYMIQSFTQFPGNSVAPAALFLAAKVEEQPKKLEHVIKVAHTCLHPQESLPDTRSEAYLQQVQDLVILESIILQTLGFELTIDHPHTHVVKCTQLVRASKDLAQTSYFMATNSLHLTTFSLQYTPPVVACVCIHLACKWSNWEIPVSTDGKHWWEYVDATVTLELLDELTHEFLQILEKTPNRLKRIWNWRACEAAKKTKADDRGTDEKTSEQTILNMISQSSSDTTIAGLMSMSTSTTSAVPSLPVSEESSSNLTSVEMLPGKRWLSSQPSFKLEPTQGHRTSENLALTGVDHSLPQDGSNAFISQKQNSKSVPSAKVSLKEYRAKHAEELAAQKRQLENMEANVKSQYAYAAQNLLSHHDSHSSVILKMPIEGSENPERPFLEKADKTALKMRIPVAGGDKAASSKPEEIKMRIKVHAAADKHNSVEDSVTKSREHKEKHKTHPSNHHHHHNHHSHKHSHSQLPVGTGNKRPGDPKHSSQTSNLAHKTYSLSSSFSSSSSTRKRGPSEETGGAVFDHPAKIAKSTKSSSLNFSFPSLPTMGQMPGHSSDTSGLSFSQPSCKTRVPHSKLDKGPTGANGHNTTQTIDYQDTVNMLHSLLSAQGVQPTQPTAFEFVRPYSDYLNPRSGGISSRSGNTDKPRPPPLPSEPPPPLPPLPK
row,Structure (SMILES),IC50
1,"O[C@@H]1CNCC[C@H]1CNc1nccc(-c2ccn3ncc(C4CC4)c3n2)n1 (relative stereo) [Compound I-4, trans-5-[2-(3-hydroxypiperidin-4-yl)methylaminopyrimidin-4-yl]-3-cyclopropylpyrazolo[1,5-a]pyrimidine]",< 1000 nM
2,"CC(C)c1cnn2ccc(-c3ccnc(NC[C@@H]4CCNC[C@H]4O)n3)nc12 (relative stereo) [Compound I-6, trans-5-[2-(3-hydroxypiperidin-4-yl)methylaminopyrimidin-4-yl]-3-isopropylpyrazolo[1,5-a]pyrimidine]",< 1000 nM
3,"c1cc(-c2ccn3ncc(C4CC4)c3n2)nc(N[C@H]2CC[C@H](NC3CCOCC3)CC2)n1 [Compound I-1, trans-N^1-[4-[(3-cyclopropyl)pyrazolo[1,5-a]pyrimidin-5-yl]pyrimidin-2-yl]-N^4-(tetrahydro-2H-pyran-4-yl)cyclohexane-1,4-diamine]",1000 to 5000 nM
4,"c1cc(-c2ccn3ncc(C4CCC4)c3n2)nc(N[C@H]2CC[C@H](NC3CCOCC3)CC2)n1 [Compound I-2, trans-N^1-[4-[(3-cyclobutyl)pyrazolo[1,5-a]pyrimidin-5-yl]pyrimidin-2-yl]-N^4-(tetrahydro-2H-pyran-4-yl)cyclohexane-1,4-diamine]",1000 to 5000 nM
5,"c1cc(-c2ccn3nccc3n2)nc(NC2CCNCC2)n1 [Compound I-8, trans-5-[2-(piperidin-4-yl)aminopyrimidin-4-yl]pyrazolo[1,5-a]pyrimidine]",1000 to 5000 nM
6,"N[C@H]1CC[C@@H](Nc2nccc(-c3ccn4nccc4n3)n2)C1 [Compound I-9, (1S, 3R)-[3-[4-[pyrazolo[1,5-a]pyrimidin-5-yl]pyrimidin-2-yl]aminocyclopentan-1-yl]-1,3-diamine]",< 1000 nM

# The remaining lines, values ahead:
row,IC50,Structure (SMILES)
1,1000 to 5000 nM,"O[C@@H]1CNCC[C@H]1CNc1nccc(-c2ccn3ncc(C4CCC4)c3n2)n1 (relative stereo) [Compound I-5, trans-5-[2-(3-hydroxypiperidin-4-yl)methylaminopyrimidin-4-yl]-3-cyclobutylpyrazolo[1,5-a]pyrimidine]"
2,1000 to 5000 nM,"O[C@@H]1CNCC[C@H]1CNc1nccc(-c2ccn3nccc3n2)n1 (relative stereo) [Compound I-7, trans-5-[2-(3-hydroxypiperidin-4-yl)methylaminopyrimidin-4-yl]pyrazolo[1,5-a]pyrimidine]"
3,< 1000 nM,"CC(C)c1cnn2ccc(-c3ccnc(N[C@H]4CC[C@H](NC5CCOCC5)CC4)n3)nc12 [Compound I-3, trans-N^1-[4-[(3-isopropyl)pyrazolo[1,5-a]pyrimidin-5-yl]pyrimidin-2-yl]-N^4-(tetrahydro-2H-pyran-4-yl)cyclohexane-1,4-diamine]"
4,1000 to 5000 nM,"c1cc(-c2ccn3nccc3n2)nc(N[C@H]2CC[C@H](NC3CCOCC3)CC2)n1 [Compound I-10, trans-N^1-[4-[pyrazolo[1,5-a]pyrimidin-5-yl]pyrimidin-2-yl]-N^4-(tetrahydro-2H-pyran-4-yl)cyclohexane-1,4-diamine]"
5,< 1000 nM,"N[C@H]1CC[C@H](Nc2nccc(-c3ccn4nccc4n3)n2)C1 [Compound I-11, (1S, 3S)-[3-[4-[pyrazolo[1,5-a]pyrimidin-5-yl]pyrimidin-2-yl]aminocyclopentan-1-yl]-1,3-diamine]"
6,< 1000 nM,"Cc1cnn2ccc(-c3ccnc(N[C@H]4CC[C@H](N)C4)n3)nc12 [Compound I-12, (1S, 3S)-[3-[4-[3-methylpyrazolo[1,5-a]pyrimidin-5-yl]pyrimidin-2-yl]aminocyclopentan-1-yl]-1,3-diamine]"
7,5000 to 10000 nM,"Cc1cc2nc(-c3ccnc(N[C@H]4CC[C@H](N)C4)n3)ccn2n1 [Compound I-13, (1S, 3S)-[3-[4-[2-methylpyrazolo[1,5-a]pyrimidin-5-yl]pyrimidin-2-yl]aminocyclopentan-1-yl]-1,3-diamine]"
8,< 1000 nM,"CC(C)c1cnn2ccc(-c3ccnc(N[C@H]4CC[C@H](N)C4)n3)nc12 [Compound I-14, (1S, 3S)-[3-[4-[3-isopropylpyrazolo[1,5-a]pyrimidin-5-yl]pyrimidin-2-yl]aminocyclopentan-1-yl]-1,3-diamine]"
